In one assay the target is T1, 5HT2B receptors (Homo sapiens, UniProt P41595).
T1 construct: expressed in transfected cells; host or cells: CHO-K1 cells
As to the kind of experiment: Human 5-HT2B functional high throughput screening assay in CHO-K1 cells (calcium flux). It counts as cell-based. As to conditions: for EC50: CHO-K1 cells, calcium flux; call rule not given here. The essentials:
(§1)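 Serum-starved CHO-K1 cells carrying the receptor; Ca4 dye, 60 min RT. Test compound added after a 10 s baseline, fluorescence followed for 3 min. EC50 from 4-parameter fit; Emax given as % of serotonin effect.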
Background: Calcium flux is commonly read through the fluorescence of an indicator in the cells.

The target of the next assay is T2, 5HT2C receptors (Homo sapiens, UniProt P28335).
T2 sequence (P28335 33-458): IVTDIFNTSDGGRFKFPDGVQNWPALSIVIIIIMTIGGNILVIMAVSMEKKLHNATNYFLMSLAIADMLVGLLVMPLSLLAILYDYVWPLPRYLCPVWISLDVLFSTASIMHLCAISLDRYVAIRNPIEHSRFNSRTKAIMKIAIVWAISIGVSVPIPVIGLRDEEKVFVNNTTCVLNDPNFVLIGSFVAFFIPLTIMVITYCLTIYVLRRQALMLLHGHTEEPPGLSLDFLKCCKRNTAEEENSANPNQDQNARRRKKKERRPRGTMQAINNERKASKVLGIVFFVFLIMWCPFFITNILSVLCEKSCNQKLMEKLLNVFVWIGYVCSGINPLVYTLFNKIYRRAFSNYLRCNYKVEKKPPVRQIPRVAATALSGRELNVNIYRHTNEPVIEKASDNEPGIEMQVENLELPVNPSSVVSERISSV
The assay can be described thus: Human 5-HT2C functional high throughput screening assay in CHO-K1 cells (calcium flux). It counts as cell-based. On the set-up: expressed in transfected cells; host or cells: CHO-K1 cells. As to conditions: for EC50: CHO-K1 cells, calcium flux; for Emax: CHO-K1. The method, boiled down:
as §1

The mark [1] stands for this setting: 5-HT2B agonist activity, read-out: EC50.
[2] abbreviates: 5-HT2B, maximum functional response as percentage relative to the effect of serotonin.
[3] abbreviates: 5-HT2C agonist activity, read-out: EC50.
[4] abbreviates: 5-HT2C, maximum functional response as percentage relative to the effect of serotonin, read-out: Emax.
The mark [5] stands for this setting: 5-HT2C, maximum functional response as percentage relative to the effect of serotonin.

Molecules are shown by their SMILES. Like-named read-outs stand apart in the source and are kept apart here.

T1 sequence (P41595 whole entry): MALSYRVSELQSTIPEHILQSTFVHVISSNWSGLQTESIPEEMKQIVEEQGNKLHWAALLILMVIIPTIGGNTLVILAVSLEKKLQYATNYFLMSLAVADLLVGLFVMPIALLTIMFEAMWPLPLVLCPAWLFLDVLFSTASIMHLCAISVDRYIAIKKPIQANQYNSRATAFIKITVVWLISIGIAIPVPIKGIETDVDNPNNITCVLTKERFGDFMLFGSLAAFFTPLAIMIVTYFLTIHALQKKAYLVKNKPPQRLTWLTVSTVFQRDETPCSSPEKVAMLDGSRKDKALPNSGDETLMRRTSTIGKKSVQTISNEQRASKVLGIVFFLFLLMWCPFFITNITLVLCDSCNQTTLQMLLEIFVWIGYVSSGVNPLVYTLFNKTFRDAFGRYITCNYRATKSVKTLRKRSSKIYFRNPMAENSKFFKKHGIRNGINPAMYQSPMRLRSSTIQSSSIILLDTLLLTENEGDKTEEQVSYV

For orientation: EC50 means the concentration giving half of the maximal effect. In general, Emax refers to the size of the effect at its maximum, as opposed to the concentration needed. For `CS(=O)(=O)c1cccc(-c2cccc3c2OCC[C@H]2CNC[C@H]32)c1` (relative stereo) [Example 350, Trans-7-[3-(methylsulfonyl)phenyl]-2,3,3a,4,5,10b-hexahydro-1H-[1]benzoxepino[4,5-c]pyrrole], the EC50 at 5HT2B receptors (setting [1]) was above 10000 nM; at 5HT2C receptors (setting [3]), 1000 nM. The results for the Emax result on 5HT2B receptors (setting [2]) and on 5HT2C receptors (setting [4]) were “inactive” and 75%, respectively.
As for `N#Cc1cccc(-c2ccc3c(c2)C(=O)NC[C@@H]2CNC[C@@H]32)c1` (relative stereo) [Example 239, 3-(Trans-6-oxo-1,2,3,3a,4,5,6,10b-octahydrobenzo[c]pyrrolo[3,4-e]azepin-8-yl)benzonitrile], the EC50 on 5HT2B receptors (setting [1]) was 2000 nM; on 5HT2C receptors (setting [3]) it was 0.8 nM. Moreover, the Emax at 5HT2B receptors (CHO-K1, 5-HT2B, maximum functional response as percentage relative to the effect of serotonin, read-out: Emax) was 20%; on 5HT2C receptors (setting [4]) it was above 120%.
Turning to `O=C1NC[C@H]2CNC[C@@H]2c2ccc(-c3ccc(F)cc3)cc21` [Example 220, (3aR,10bS)-8-(4-Fluorophenyl)-1,2,3,3a,4,5-hexahydrobenzo[e]pyrrolo[3,4-c]azepin-6(10bH)-one], the EC50 on 5HT2B receptors (setting [1]) was above 10000 nM; at 5HT2C receptors (setting [3]) it was below 0.1 nM. For the same molecule, the Emax result at 5HT2B receptors (setting [2]) was “inactive”; at 5HT2C receptors (setting [4]), above 120%.
Turning to `Brc1cccc2c1OCC[C@H]1CNC[C@@H]21` (relative stereo) [Example 332, Cis-7-bromo-2,3,3a,4,5,10b-hexahydro-1H-[1]benzoxepino[4,5-c]pyrrole], the values for the Emax on 5HT2B receptors (CHO-K1) and on 5HT2C receptors (setting [5]) were 20% and 90%, respectively. The EC50 worked out at 30 nM on 5HT2B receptors (EC50, 5-HT2B agonist activity) and 0.9 nM on 5HT2C receptors (EC50, 5-HT2C agonist activity).
In the same order, the values of `COc1ccc2c(c1)[C@H]1CNC[C@@H]1CC=C2` (relative stereo) [Example 266, Trans-9-methoxy-1,2,3,3a,4,10b-hexahydrobenzo[3,4]cyclohepta[1,2-c]pyrrole] are 25%, above 120%, 400 nM and 10 nM.
In the same order, the values of `Cc1ccc2c(c1)OCC[C@H]1CNC[C@H]21` (relative stereo) [Example 373, Trans-8-methyl-2,3,3a,4,5,10b-hexahydro-1H-[1]benzoxepino[4,5-c]pyrrole] are 70%, 100%, 50 nM and 6 nM.
As to `O=C1NC[C@@H]2CN(CCF)C[C@H]2c2ccc(-c3ccc(F)cc3)cc21` (relative stereo) [Example 384, Trans-2-(2-fluoroethyl)-8-(4-fluorophenyl)-2,3,3a,4,5,10b-hexahydropyrrolo[3,4-d][2]benzazepin-6(1H)-one], the Emax result on 5HT2B receptors is “inactive”; on 5HT2C receptors it was 85%. The values for the EC50 on 5HT2B receptors (setting [1]) and on 5HT2C receptors (setting [3]) were above 10000 nM and 40 nM, respectively.
For `CC1(C)CCC(Oc2ccc3c(c2)C(=O)NC[C@@H]2CNC[C@@H]32)CC1` (relative stereo) [Example 246, Trans-8-(4,4-dimethylcyclohexyloxy)-1,2,3,3a,4,5-hexahydrobenzo[e]pyrrolo[3,4-c]azepin-6(10bH)-one], the Emax entry at 5HT2B receptors (setting [2]) is “inactive”; at 5HT2C receptors (setting [5]), 100%. Further, the EC50 on 5HT2B receptors (EC50, 5-HT2B agonist activity) is above 10000 nM; at 5HT2C receptors (EC50, 5-HT2C agonist activity), 40 nM.
In the same order, the values of `O=S(=O)(c1ccc(Cl)cc1)N1Cc2cccnc2[C@@H]2CNC[C@H]2C1` (relative stereo) [Example 340, Trans-6-[(4-chlorophenyl)sulfonyl]-5,6,7,7a,8,9,10,10a-octahydropyrido[3,2-c]pyrrolo[3,4-e]azepine] are “inactive”, 90%, above 10000 nM and 70 nM.
With `O=S(=O)(c1ccc(Br)s1)N1Cc2cccnc2[C@@H]2CNC[C@H]2C1` (relative stereo) [Example 360, Trans-6-[(5-bromo-2-thienyl)sulfonyl]-5,6,7,7a,8,9,10,10a-octahydropyrido[3,2-c]pyrrolo[3,4-e]azepine], the Emax on 5HT2B receptors (CHO-K1) came out at 20%; on 5HT2C receptors (setting [5]), 80%. The EC50 on 5HT2B receptors (EC50, 5-HT2B agonist activity) was found to be 300 nM; at 5HT2C receptors (EC50, 5-HT2C agonist activity) it was 10 nM.
For the molecule `CN1C[C@H]2CNC(=O)c3cc(C(=O)NCCc4ccccc4)ccc3[C@@H]2C1` (relative stereo) [Example 126, Trans-2-methyl-6-oxo-N-phenethyl-1,2,3,3a,4,5,6,10b-octahydrobenzo[e]pyrrolo[3,4-c]azepine-8-carboxamide], the figures for the EC50 on 5HT2B receptors (setting [1]) and at 5HT2C receptors (setting [3]) were above 10000 nM and 6000 nM, respectively. In addition, the results for the Emax entry on 5HT2B receptors (setting [2]) and at 5HT2C receptors (setting [4]) were “inactive” and 60%, respectively.
In the same order, the values of `O=C1NC[C@@H]2CN(Cc3ccccc3)C[C@H]2c2ccc(OCCc3cccc(F)c3)cc21` (relative stereo) [Example 119, Trans-2-benzyl-8-(3-fluorophenethoxy)-1,2,3,3a,4,5-hexahydrobenzo[e]pyrrolo[3,4-c]azepin-6(10bH)-one] are above 10000 nM, 100 nM, “inactive” and above 120%.
For the molecule `Fc1ccc2c(c1)OCC[C@H]1CN(Cc3ccccc3)C[C@H]21` (relative stereo) [Example 107, Trans-2-benzyl-8-fluoro-2,3,3a,4,5,10b-hexahydro-1H-[1]benzoxepino[4,5-c]pyrrole], the results for the Emax on 5HT2B receptors (CHO-K1) and on 5HT2C receptors (setting [5]) were 15% and 110%, respectively. Further, the EC50 at 5HT2B receptors (EC50, 5-HT2B agonist activity) worked out at 700 nM; at 5HT2C receptors (EC50, 5-HT2C agonist activity) it was 90 nM.
In the same order, the values of `O=S(=O)(c1ccccc1F)N1Cc2cccnc2[C@@H]2CNC[C@H]2C1` (relative stereo) [Example 361, Trans-6-[(2-fluorophenyl)sulfonyl]-5,6,7,7a,8,9,10,10a-octahydropyrido[3,2-c]pyrrolo[3,4-e]azepine] are 80%, 80%, 300 nM and 100 nM.
For `CC(C)COc1ccc2c(c1)C(=O)NC[C@@H]1CNC[C@@H]21` [Example 309, (3aS,10bR)-8-Isobutoxy-2,3,3a,4,5,10b-hexahydropyrrolo[3,4-d][2]benzazepin-6(1H)-one], the figures for the maximal effect (Emax) result at 5HT2B receptors (setting [2]) and on 5HT2C receptors (setting [5]) were “inactive” and 70%, respectively. Moreover, the EC50 on 5HT2B receptors (EC50, 5-HT2B agonist activity) is above 10000 nM.
Regarding `Fc1ccc(COc2cccc3c2OCC[C@H]2CNC[C@H]32)cc1` (relative stereo) [Example 398, Trans-7-[(4-fluorobenzyl)oxy]-2,3,3a,4,5,10b-hexahydro-1H-[1]benzoxepino[4,5-c]pyrrole], the results for the maximal response (Emax) on 5HT2B receptors (CHO-K1) and at 5HT2C receptors (setting [5]) were 100% and 90%, respectively. In addition, the EC50 at 5HT2B receptors (EC50, 5-HT2B agonist activity) came to 3 nM; on 5HT2C receptors (EC50, 5-HT2C agonist activity) it was 2 nM.
Regarding `CN(C)C(=O)c1cccc(-c2ccc3c(c2)C(=O)NC[C@@H]2CNC[C@@H]32)c1` (relative stereo) [Example 230, N,N-Dimethyl-3-(trans-6-oxo-1,2,3,3a,4,5,6,10b-octahydrobenzo[c]pyrrolo[3,4-e]azepin-8-yl)benzamide], the EC50 was above 10000 nM at 5HT2B receptors (setting [1]) and 80 nM at 5HT2C receptors (setting [3]). The Emax result on 5HT2B receptors (setting [2]) was “inactive”; on 5HT2C receptors (setting [4]) it was above 120%.
`CN1C[C@@H]2CNC(=O)c3cc(O)ccc3[C@H]2C1` [Example 200, (3aS,10bS)-8-Hydroxy-2-methyl-1,2,3,3a,4,5-hexahydrobenzo[e]pyrrolo[3,4-c]azepin-6(10bH)-one]: the EC50 at 5HT2B receptors (setting [1]) is above 10000 nM; on 5HT2C receptors (setting [3]), 500 nM. The values for the Emax result at 5HT2B receptors (setting [2]) and at 5HT2C receptors (setting [5]) were “inactive” and 55%, respectively.
As to `C[C@@H](Oc1ccc2c(c1)C(=O)NC[C@@H]1CNC[C@@H]21)c1ccccc1` (mixture of isomers) [Example 150, Trans-8-((R)-1-phenylethoxy)-1,2,3,3a,4,5-hexahydrobenzo[e]pyrrolo[3,4-c]azepin-6(10bH)-one], the Emax entry is “inactive” at 5HT2B receptors (setting [2]) and above 120% at 5HT2C receptors (setting [5]). The EC50 is above 10000 nM on 5HT2B receptors (EC50, 5-HT2B agonist activity) and 50 nM on 5HT2C receptors (EC50, 5-HT2C agonist activity).
For the molecule `CN1C[C@H]2CNC(=O)c3c(OC(F)(F)F)cccc3[C@@H]2C1` [Example 112, (3aR,10bR)-2-Methyl-7-(trifluoromethoxy)-1,2,3,3a,4,5-hexahydrobenzo[c]pyrrolo[3,4-e]azepin-6(10bH)-one], the Emax result at 5HT2B receptors (setting [2]) was “inactive”; at 5HT2C receptors (setting [5]), 90%. Besides, on 5HT2B receptors (EC50, 5-HT2B agonist activity), the EC50 was above 10000 nM.
As for `O=S(=O)(c1cccs1)N1Cc2cccnc2[C@@H]2CNC[C@H]2C1` (relative stereo) [Example 358, Trans-6-(2-thienylsulfonyl)-5,6,7,7a,8,9,10,10a-octahydropyrido[3,2-c]pyrrolo[3,4-e]azepine], the EC50 is above 10000 nM on 5HT2B receptors (setting [1]) and 300 nM on 5HT2C receptors (setting [3]). Moreover, the Emax entry was “inactive” on 5HT2B receptors (setting [2]) and 20% at 5HT2C receptors (setting [5]).

These data come from patent US8846951B2 (AbbVie Inc., priority 2009, dated 2014).
